Reference: patent US9777037B2, “Neurosteroid compounds” (BIONATURE E. A. LTD., priority 2007, dated 2017)

Tests used:
[1] = system: Bcl-2 and Bcl-xL proteins; assay: Western blot of anti-apoptotic Bcl-2 and Bcl-xL proteins in serum-deprived PC12 cells; assay type: cell-based, rat; details: 10 nM neurosteroid (FIG. 4)
Protocol: Neural-crest derived PC12 cells were cultured for 8 hours in the absence of serum, but supplemented with 10 nM of various neurosteroids. At the end of incubation cell lysates were subjected to electrophoresis through a 12% SDS-polyacrylamide gel. Then, proteins were transferred to nitrocellulose membranes, which were processed according to standard Western blotting procedures. To detect protein levels, membranes were incubated with the appropriate antibodies: Bcl-2, (Santa Cruz Biotechnology Inc., Santa Cruz, Calif., dilution 1:100) Bcl-xL (Cell Signalling Technology Inc., Beverly, Mass., dilution 1:100). A PC-based Image Analysis program was used to quantify the intensity of each band (Image Analysis, Inc., Ontario, Canada). To normalize for protein content, the blots were stripped and stained with anti-actin antibodies (Chemicon, Temecula, Calif., dilution 1:400); the concentration of each target protein was normalized versus actin.

[2] = system: DHEA specific membrane receptors; assay: [3H]DHEA competition binding on isolated PC12 cell membranes; set-up: species or system rat; details: for Kd: isolated PC12 cell membranes, 5 nM [3H]DHEA (FIG. 5)
Protocol: PC12 rat sympathoadrenal cells were cultured in 225 cm^2 flasks and, after washing twice with PBS, they were detached from the flasks by vigorous shaking. After a centrifugation at 1500 g, they were homogenized by sonication, in a 50 mM Tris-HCl buffer pH 7.4 at 4° C., containing freshly added protease inhibitors (1 mM PMSF and 1 μg/ml aprotinin). Unbroken cells were removed by centrifugation at 1500 g (10 min at 4° C.), and membranes were collected by centrifuging at 102,000 g for 1 hr at 4° C. Membranes were washed once with Tris-HCl, briefly acidified at 4° C. (for 3 min) with 50 mM glycine (pH 5.0), and re-suspended in the same buffer. Protein content was assayed by the method of Bradford, using reagents from Bio-Rad (Hercules, Calif.). Membranes (at a final concentration of 2 mg/ml) were incubated with 5 nM [^3H]DHEA, in the absence (to determine the total binding) or presence of unlabeled neurosteroids and their synthetic spiro analogs, at concentrations varying from 10^−12 to 10^−6 M and at a final volume of 100 μl, in Tris-HCl buffer (50 mM, pH 7.4). Following a […] incubation in a water bath, at 37° C., membranes were collected on GF/B filters, prewet in 0.5% PEI solution at 4° C. The filters were washed three times with ice-cold Tris-HCl, dried, supplemented with scintillation medium (Sigma Hellas, Athens, Greece) and counted in a β-scintillation counter (Perkin Elmer, Foster City, Calif.) with 60% efficiency for Tritium.

progenitor neural cells = assay: Neurogenesis of progenitor neural cells isolated from mouse fetal brain; assay type: cell-based; details: 100 nM, 24 hours (FIG. 8)
Protocol: This effect appeared to be EGF/bFGF dependent. […] The extent of migration of the first days in culture was mostly normalised as in most conditions cells had migrated out of the sphere to the periphery. The photographs shown (FIG. 7) were obtained on the 6th day of culture where migration effects are not so dramatic but still evident. Additionally, progenitor neural cells, isolated from mouse fetal brain, were exposed for 24 hours to 100 nM of BNN-93 or to the vehicle (control).

[3] = system: Primary cortical neurospheres; assay: Migration of neural cells from primary cortical neurospheres; assay type: cell-based, mouse; details: 10^-7 M, within 24-48 hrs of culture, EGF/bFGF dependent (FIG. 7)
Protocol: Primary cortical neurospheres (21d) generated from wild type mice were cultured attached on PLL and laminin-coated coverslips in serum-free media in the presence or absence of EGF and bFGF (20 ng/ml final concentration each). For the screen, the media was supplemented with ethanol, retinoic acid (at-RA), DHEA, or the synthetic spiro neurosteroid BNN-93, at a final concentration of 10^−7M.

[4] = system: tyrosine hydroxylase mRNA; assay: Tyrosine hydroxylase (TH) RT-PCR in dopaminergic PC12 cells; assay type: cell-based, rat; details: dopaminergic PC12 cells (FIG. 6C)
Protocol: Tyrosine Hydroxylase (TH) RT-PCR: Total RNA was extracted from dopaminergic PC12 cells using the Trizol Reagent (Invitrogen Life technologies, CA). One microgram of total RNA was reverse transcribed by the Thermo-Script RT-PCR System (Invitrogen) using random hexamers in a total volume of 20 μl. Two microliters of the RT product was used as a template, amplified by PCR using 2 mM MgCl2, one strength PCR buffer, 0.2 mM of sense and antisense primers, 0.2 mM dNTPs and 2.5 U AmpliTaq Gold DNA polymerase (Perkin Elmer ABD, Foster City, Calif.) in a final reaction volume of 50 μl. PCR was performed in a Perkin Elmer DNA Thermal Cycler. Primers for TH were 5′-[…]-3′ (sense), and 5-[…]-3 (antisense) and for G3PDH were, 5′-[…]-3′ (sense), and 5′-[…]-3′ (antisense). Oligonucleotides were synthesized by MWG-Biotech AG (Munich, Germany). After reverse transcription, the cDNA product was amplified by PCR, at 33 cycles. The cycle number (33) was chosen such that amplification of the products was in the linear range with respect to the amount of input cDNA. PCR for G3PDH was performed in parallel to assure good quality of RNA and cDNA preparations. Each cycle consisted of 60 s at 92° C. for denaturation, 120 s at 53° C. for annealing, and 180 s at 72° C. for extension (60 s at 98° C., 90 s at 55° C., and 150 s at 72° C. for G3PDH respectively). 10 μl of the amplified products (368 bp for TH and 983 bp for G3PDH) were separated on a 2% agarose gel and visualized by ethidium bromide staining.

[5] = system: Dopaminergic neural-crest derived PC12 cells; assay: Dopamine secretion from dopaminergic PC12 cells (radioimmunoassay); assay type: cell-based, rat; details: 10^-7 M; for dopamine levels in culture media, long-term: 3 to 48 hours (FIG. 6B); for stimulation of dopamine secretion, short-term: 5 to 30 min, effect within 10 min (FIG. 6A)
Protocol: Dopaminergic neural-crest derived PC12 cells were grown in 6-well plates, coated with poly-L-lysine, at a concentration of 10^6 cells/well. Cells were incubated with neurosteroids or the vehicle for several time periods; for the short-term experiments the incubation time ranged from 5 to 30 minutes and for the long-term from 3 to 48 hours. 1 mL of supernatants were transferred to tubes containing 200 μl 0.1 M HCl for measurement of dopamine, which was measured by radioimmunoassay (TriCat™ RIA, RE29395, IBL Immuno Biological Lab., Hamburg, Germany) using ^125I as a tracer. The analytical sensitivity of the method was 30 pg/ml, its intra-assay CV was 9.5%, and its inter-assay CV was 16.7%. The cross reactivity between dopamine and norepinephrine was <0.013%

[6] = system: Neural-crest derived PC12 cells; assay: APOPercentage apoptosis assay, serum-deprivation induced apoptosis of PC12 cells; assay type: cell-based, rat; details: for IC50: Rattus norvegicus, PC-12, absence of serum 12 hours, ApoPercentage assay (FIG. 2), read-out: IC50 of anti-apoptotic, cytoprotective effect
Protocol: Neural-crest derived PC12 cells were maintained in culture at 5% CO2, at 37° C., in RPMI 1640 medium containing 2 mM L-glutamine, 15 mM HEPES, 100 units/ml penicillin, 0.1 mg/ml streptomycin, 10% horse serum, and 5% foetal calf serum. Serum free medium was supplemented with 1% bovine serum albumin (BSA). Different steroids, used at various concentrations, were initially diluted in ethanol. The final concentration of ethanol in each well, including controls was 0.01%. Conjugate DHEA-BSA was initially diluted in Phosphate Buffer Saline (PBS).
Cells were cultured in the absence of serum for 12 hours, supplemented with DHEA and various synthetic spiro neurosteroids at 10 nM. Cell apoptosis was quantitated with two different methods: The APOPercentage Apoptosis Assay (Biocolor Ltd., Belfast, N. Ireland) was used to quantify apoptosis, according to the manufacturer's instructions. Apoptosis was quantified following cell lysis by measuring the dye incorporated in apoptotic cells at 550 nm (reference filter 620 nm) using a colour filter microplate colorimeter (Dynatech MicroElisa reader, Chantilly, Va.) (see FIGS. 1 and 2). FACS Analysis: FACS analysis of apoptotic cells was performed according to our protocol (Proc Natl Acad Sci USA 101,8209 (2004)). Flow cytometry was performed with FACScan (Becton Dickinson, Heidelberg, Germany) and the results were analysed with the FACScan and Cell Quest softwares (see FIG. 3).

TrkA NGF receptors = biological target: T1, TrkA NGF receptors (Homo sapiens, UniProt P04629); assay: [3H]DHEA competition binding on membranes from HEK293 TrkA cells; details: membranes from HEK293 TrkA cells (FIG. 9)
T1 construct: expressed in transfected cells; host or cells: HEK293
Protocol: (§1) HEK293 cells were transfected with the cDNAs of TrkA and p75NTR, the high and low affinity receptors for nerve growth factor (NGF) (Ann Rev Biochem 72:604, 2003). Transfectants expressing the two NGF receptor subtypes were cultured in flasks and, after washing twice with PBS, they were detached from the flasks. After a centrifugation at 1500 g, they were homogenized by sonication, in a 50 mM Tris-HCl buffer pH 7.4 at 4° C., containing freshly added protease inhibitors (1 mM PMSF and 1 μg/ml aprotinin). Unbroken cells were removed by centrifugation at 1500 g (10 min at 4° C.), and membranes were collected by centrifuging at 102,000 g for 1 hr at 4° C. Membranes were washed once with Tris-HCl, briefly acidified at 4° C. (for 3 min) with 50 mM glycine (pH 5.0), and re-suspended in the same buffer. Protein content was assayed by the method of Bradford, using reagents from Bio-Rad (Hercules, Calif.). Membranes (at a final concentration of 2 mg/ml) were incubated with 5 nM [^3H]DHEA, in the absence (to determine the total binding) or presence of unlabelled BNN-124 at concentrations varying from 10^−12 to 10^−6 M and at a final volume of 100 μl, in Tris-HCl buffer (50 mM, pH 7.4). […] The filters were washed three times with ice-cold Tris-HCl, dried and counted in a β-scintillation counter (Perkin Elmer, Foster City, Calif.) with 60% efficiency for tritium.

p75NTR NGF receptors = biological target: T2, p75NTR NGF receptors (Homo sapiens, UniProt P08138); assay: [3H]DHEA competition binding on membranes from HEK293 p75NTR cells; details: membranes from HEK293 p75NTR cells (FIG. 9)
T2 construct: expressed in transfected cells; host or cells: HEK293
T2 sequence (P08138 29-427): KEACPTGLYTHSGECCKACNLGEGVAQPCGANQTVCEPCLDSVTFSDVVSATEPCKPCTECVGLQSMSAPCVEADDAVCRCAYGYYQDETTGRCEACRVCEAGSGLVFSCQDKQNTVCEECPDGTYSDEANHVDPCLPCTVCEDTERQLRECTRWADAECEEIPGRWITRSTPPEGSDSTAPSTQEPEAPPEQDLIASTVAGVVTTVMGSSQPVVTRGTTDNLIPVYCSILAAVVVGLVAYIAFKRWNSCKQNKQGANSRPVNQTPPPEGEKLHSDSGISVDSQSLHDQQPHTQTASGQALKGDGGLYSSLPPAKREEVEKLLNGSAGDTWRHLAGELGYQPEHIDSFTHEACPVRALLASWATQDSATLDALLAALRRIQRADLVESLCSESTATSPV
Protocol: as §1

[7] = system: Bcl-2 protein and ERK1/2 kinase; assay: Western blot of Bcl-2 and phosphorylated ERK1/2 in serum deprived PC12 cells; assay type: cell-based, rat; details: 8 hours, 10 nM BNN-124 or 20 ng/ml NGF (FIG. 9)
Protocol: Neural-crest derived PC12 cells were cultured for 8 hours in the absence of serum, but supplemented with 10 nM of synthetic neurosteroids of 20 ng/ml of NGF. At the end of incubation cell lysates were subjected to electrophoresis through a 12% SDS-polyacrylamide gel. Then proteins were transferred to nitrocellulose membranes, which were processed according to standard Western blotting procedures. To detect protein levels, membranes were incubated with the appropriate antibodies: Bcl-2 (Santa Cruz Biotechnology Inc., Santa Cruz, Calif., dilution 1:100), phosphorylated ERK1/2 (Cell Signalling Technology Inc., Beverly, Mass., dilution 1:100). To normalize for protein content, the blots were stripped and stained with anti-actin or anti-total ERK1/2 antibodies (Chemicon, Temecula, Calif., dilution 1:400).

T1 sequence (P04629 33-796): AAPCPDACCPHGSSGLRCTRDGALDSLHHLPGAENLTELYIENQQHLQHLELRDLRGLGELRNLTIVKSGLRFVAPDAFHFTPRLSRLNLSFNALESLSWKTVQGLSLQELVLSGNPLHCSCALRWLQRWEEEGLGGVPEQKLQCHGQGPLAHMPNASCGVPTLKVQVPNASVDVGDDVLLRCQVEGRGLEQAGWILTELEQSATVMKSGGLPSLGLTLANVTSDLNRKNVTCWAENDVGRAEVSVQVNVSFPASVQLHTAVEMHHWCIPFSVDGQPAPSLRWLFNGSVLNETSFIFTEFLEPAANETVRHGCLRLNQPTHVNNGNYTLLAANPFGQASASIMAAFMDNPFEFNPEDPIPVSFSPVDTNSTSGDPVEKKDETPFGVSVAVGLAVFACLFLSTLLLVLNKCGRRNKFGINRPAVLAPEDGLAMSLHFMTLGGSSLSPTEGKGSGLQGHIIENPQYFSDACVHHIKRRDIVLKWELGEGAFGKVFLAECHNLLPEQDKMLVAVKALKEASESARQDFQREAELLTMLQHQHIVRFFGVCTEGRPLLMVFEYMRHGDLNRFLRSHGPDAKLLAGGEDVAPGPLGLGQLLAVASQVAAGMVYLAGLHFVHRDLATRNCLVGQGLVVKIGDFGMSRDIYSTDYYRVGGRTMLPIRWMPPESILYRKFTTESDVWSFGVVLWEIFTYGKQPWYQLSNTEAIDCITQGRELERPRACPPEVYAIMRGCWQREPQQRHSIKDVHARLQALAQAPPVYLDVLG

C[C@]12CC[C@H](O)CC1=CCC1C2CC[C@@]2(C)C1CC[C@@]21OC1CO (stereo partly drawn) [BNN-93, 3β,21-dihydroxy-17α,20-epoxy-5-pregnene]
levels of anti-apoptotic Bcl-2 and Bcl-xL proteins [1]: preventing this effect | displacement of specific [3H]DHEA binding ([2]; at 1 μM, PC12 cell membranes): approximately 60% | Kd [2]: 11.2 nM | neurogenesis and differentiation of progenitors to neural cells (progenitor neural cells): stimulated neurogenesis and differentiation | migration of neural cells to the periphery of the neurospheres [3]: extensive migration | induction of tyrosine hydroxylase mRNA [4]: strong induction | dopamine levels in culture media, long-term [5]: increase of dopamine levels peaking at 24 h | stimulation of dopamine secretion, short-term [5]: doubling their levels | IC50 [6]: 4.16 nM

C[C@]12CC[C@H](O)CC1=CCC1C2CC[C@@]2(C)C1CC[C@]21O[C@H]1CO (stereo partly drawn) [BNN-124, (20S)-3β,21-dihydroxy-17β,20-epoxy-5-pregnene]
levels of anti-apoptotic Bcl-2 and Bcl-xL proteins [1]: preventing this effect | displacement of specific [3H]DHEA binding ([2]; at 1 μM, PC12 cell membranes): approximately 60% | Kd [2]: 0.33 nM | Kd (TrkA NGF receptors): 0.29 nM | Kd (p75NTR NGF receptors): 1 nM | induction of anti-apoptotic Bcl-2 protein and phosphorylation of ERK1/2 kinase [7]: same effect | IC50 [6]: 68.4 nM

C[C@]12CC[C@H](O)CC1=CC[C@@H]1[C@@H]2CC[C@]2(C)C(=O)CC[C@@H]12 [DHEA, dehydroepiandrosterone, reference compound]
levels of anti-apoptotic Bcl-2 and Bcl-xL proteins [1]: preventing this effect | competition for [3H]DHEA binding ([2]; at 1 μM, PC12 cell membranes): Almost complete competition | Kd [2]: 1.1 nM | migration of neural cells to the periphery of the neurospheres [3]: extensive migration | stimulation of dopamine secretion, short-term [5]: doubling their levels | IC50 [6]: 0.15 nM | reversal of serum deprivation-induced apoptosis ([6]; absence of serum 12 hours, steroids at 10 nM (FIG. 1)): ~50%

C[C@]12CC[C@H](OS(=O)(=O)O)CC1=CC[C@@H]1[C@@H]2CC[C@]2(C)C(=O)CC[C@@H]12 [DHEAS, reference compound]
induction of tyrosine hydroxylase mRNA [4]: strong induction | dopamine levels in culture media, long-term [5]: increase of dopamine levels peaking at 24 h

NGF: nerve growth factor
induction of anti-apoptotic Bcl-2 protein and phosphorylation of ERK1/2 kinase [7]: inducing
